{
  "source": "paper PMC11124341",
  "about": "“4-Hydroxybenzoic Acid-Based Hydrazide–Hydrazones as Potent Growth Inhibition Agents of Laccase-Producing Phytopathogenic Fungi That Are Useful in the Protection of Oilseed Crops” (Molecules, 2024)",
  "key": {"NIH3T3 cell line": {"test_system": "NIH3T3 cell line", "set-up": "method as in PMID 23142671", "conditions": "read-out: IC50 against NIH3T3 cell line; cited from earlier work"}, "Candida": {"test_system": "Candida", "set-up": "method as in PMID 23142671", "conditions": "cited from earlier work"}, "[1]": {"target": "laccase from Trametes versicolor", "assay": "Laccase inhibition kinetic study", "assay_type": "biochemical", "conditions": "determined in this study for 32 (table cites [75]), SD = 5.75 (%)", "method": "The inhibition constant for 32 was determined according to procedures and calculations reported previously using commercially available laccase from Trametes versicolor (Sigma-Aldrich)."}, "[2]": {"test_system": "Cerrena unicolor strain no. 139", "assay": "In vitro antifungal activity, mycelial growth inhibition on PDA medium", "assay_type": "cell-based", "conditions": "Cerrena unicolor, NO.139; screening at basal 50 µg/mL, PDA medium, mean ± SD of three determinations; read-out: fungal growth inhibition, C. unicolor", "method": "(§1) The cultures of Botrytis cinerea strain FBc05 and Sclerotinia sclerotiorum strain FSc10 were obtained from the collection of the Division of Plant Pathology and Mycology at the Department of Plant Protection of Wroclaw University of Environmental and Life Sciences (Poland). Cerrena unicolor (Bull.ex.Fr.) Murr, strain no. 139, originated from the culture collection of the Department of Biochemistry, University of Lublin (Poland). The stock cultures were maintained on potato dextrose agar at +4 °C and periodically transferred to a fresh medium.\n(§2) Prior to the fungicidal activity assay of hydrazide–hydrazones 1–35, we considered ethanol and DMSO as potential dissolution media for tested compounds. […] Furthermore, a very important aspect of biological testing is the careful selection of organic solvents. These are typically used, e.g., methanol, ethanol, acetone, and DMSO, and may be highly toxic for microorganisms in even very low concentrations, such as 1% (v/v). Ethanol and DMSO with a final concentration between 0.1 and 1.0% (v/v) in a PDA medium were used and applied to evaluate the inhibition growth of B. cinerea, S. sclerotiorum, and C. unicolor (see Supplementary Materials). The following procedure was applied to the microorganism testing. The assays of fungi inhibition growth were performed at a basal concentration of 50 µg/mL for all compounds, and detailed experiments were extended for testing between 0 and 50 µg/mL (0, 6.25, 12.5, 25.0, and 50.0 µg/mL) for selected compounds. The tests were carried out on Petri dishes (diameter 60 mm) with PDA medium containing appropriate compound, co-solvent control, and hydrazide–hydrazone dissolved in co-solvent assay. A piece of mycelium with a 5 mm edge taken from the outer edge of the growing fungi on the PDA plate with co-solvent was transferred to a central part of the PDA plate with the examined compound. The plates thus inoculated were incubated at 22 °C in the dark for a time when the control plate containing only the co-solvent was covered entirely with the tested microorganism. For B. cinerea and S. sclerotiorum, the test took 3 days, and for C. unicolor, it took 7 days. Each assay was performed at least in triplicate. […] Model parameters c and e were estimated using the nonlinear least-squares method. Parameters d and b (with two exceptions) were fixed and assumed to be equal. Based on estimated parameters, the values of IC50 were determined. […] The IC50 values were calculated only in cases when the model predicted a decrease in growth rate by more than 50%.\n(§3) In vitro antifungal activity\n(§4) Prior to the fungicidal activity assay of hydrazide-hydrazones 1–35, we considered ethanol (EtOH) and DMSO as potential dissolution media for tested compounds.\n(§5) EtOH and DMSO with a final concentration between 0.1–1.0% (v/v) in a PDA medium were applied to evaluate the inhibition growth of B. cinerea, S. sclerotiorum, and C. unicolor (see Table S3). The following procedure was applied to the microorganism testing with the hydrazide-hydrazones. The assays of fungi inhibition growth were performed at a basal concentration of 50 µg/mL for all compounds, and detailed experiments were extended for testing selected molecules 18, 19, 27, […]\n(§6) Table S2. In vitro antifungal activity for DMSO and ethanol co-solvents."}, "[3]": {"test_system": "Sclerotinia sclerotiorum strain FSc10", "assay": "In vitro antifungal activity, mycelial growth inhibition on PDA medium", "assay_type": "cell-based", "conditions": "screening at basal 50 µg/mL, PDA medium, mean ± SD of three determinations", "method": "as §1, §2, §3, §4, §5, §6"}, "[4]": {"test_system": "Botrytis cinerea strain FBc05", "assay": "In vitro antifungal activity, mycelial growth inhibition on PDA medium", "assay_type": "cell-based", "conditions": "screening at basal 50 µg/mL, PDA medium, mean ± SD of three determinations", "method": "as §1, §2, §3, §4, §5, §6"}},
  "data": [
    {"compound": "Cn1nnnc1SCC(=O)N/N=C/c1ccc(O)cc1", "note": "[II]", "values": [
      {"measurement": "IC50", "setting": "NIH3T3 cell line", "value": 632, "unit": "µM"},
      {"measurement": "MIC, anticandidal activity", "setting": "Candida", "value": "0.5 to 1.0", "unit": "mg/mL"}
    ]},
    {"compound": "O=C(N/N=C/c1c(O)cc(O)c(/C=N/NC(=O)c2ccc(O)cc2)c1O)c1ccc(O)cc1", "note": "[compound 32, N′,N″-[(2,4,6-trihydroxy-1,3-phenylene)di-(E)-methanylylidene]bis(4-hydroxybenzohydrazide)]", "values": [
      {"measurement": "Ki", "setting": "[1]", "value": 194, "unit": "µM"},
      {"measurement": "inhibition of growth at 50 µg/mL", "setting": "[2]", "value": "14.3 ± 2.7", "unit": "%"},
      {"measurement": "fungal growth inhibition, S. sclerotiorum", "setting": "[3]", "value": "n.o."},
      {"measurement": "fungal growth inhibition, B. cinerea", "setting": "[4]", "value": "n.o."},
      {"measurement": "melting point", "value": "223 to 226 °C (dec.)"}
    ]}
  ]
}
